Patent publication US12570675B2, “Boronic acid compounds” (LG CHEM, LTD., priority 2020, dated 2026)

Legend:
[1] = biological target: Proteasome caspase-like activity (S26 protein from RPMI8226 cells) (Homo sapiens (Human), UniProt P28072); assay: Proteasome caspase-like activity inhibition (Z-Leu-Leu-Glu-AMC fluorogenic substrate, RPMI8226 cell extract); format: biochemical; conditions: S26 protein from RPMI8226 cell extract 2 ug/well, substrate 20 uM, 37° C., 90 minutes
Description: The abilities to inhibit the proteasome activity of the compounds described in the Examples of the present invention and boronic acid drugs were evaluated as follows.
RPMI8226 cells, which is a multiple myeloma cell line, were cultured and then separated by a centrifuge, and washed twice with phosphate buffered saline (PBS). 20 mM of a tris-HCl (pH 8.0) buffer solution was added to the washed cells, and the cells were disrupted by a homogenizer and centrifuged to obtain S26 protein from the supernatant. Suc-Leu-Leu-Val-Tyr-AMC, for a fluorogenic substrate for the chymotrypsin-like activity of the proteasome, and Z-Leu-Leu-Glu-AMC, for a fluorogenic substrate for the caspase-like activity, were purchased from Calbiochem, EMD Millipore and used. Into each well of a 96-well plate (opaque, black round bottom), 20 ul of the S26 protein (final RPMI8226 cell extract concentration: 2 ug/well), 10 ul of S26 proteasome inhibitor serially diluted from 10 uM (final DMSO concentration: 0.5%), and 20 ul of the fluorogenic substrate for the proteasome chymotrypsin-like or caspase-like activity (final concentration: 20 uM) were added and mixed and allowed to react in a 37° C. incubator for 90 minutes. The fluorescence of the fluorogenic substrate was measured by FlexStation II Fluorometer (Molecular Devices). The fluorescence inhibited by the compound diluted at each concentration was measured as the relative percentage value for the amount obtained from the treatment only with the S26 protein and the fluorogenic substrate. IC50 (inhibitory concentration 50) was expressed in terms of a concentration that inhibits 50% of the maximum fluorescence induced by the fluorogenic substrate.

[2] = biological target: Proteasome chymotrypsin-like activity (S26 protein from RPMI8226 cells) (Homo sapiens, UniProt P28074); format: biochemical; conditions: S26 protein from RPMI8226 cell extract 2 ug/well, substrate 20 uM, 37° C., 90 minutes; read-out: Proteasome chymotrypsin-like activity inhibition IC50
Procedure, shortened: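 RPMI8226 myeloma cell lysate (S26 fraction, 20 mM Tris-HCl pH 8.0; 2 ug/well) incubated with compound serially diluted from 10 uM (0.5% DMSO) and 20 uM Suc-LLVY-AMC (chymotrypsin-like) or Z-LLE-AMC (caspase-like) for 90 min at 37 °C. Fluorescence read; IC50 from % of uninhibited signal.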

Proteasome chymotrypsin-like activity (S26 protein from RPMI8226 cells), sequence (P28074 60-263 limits assumed): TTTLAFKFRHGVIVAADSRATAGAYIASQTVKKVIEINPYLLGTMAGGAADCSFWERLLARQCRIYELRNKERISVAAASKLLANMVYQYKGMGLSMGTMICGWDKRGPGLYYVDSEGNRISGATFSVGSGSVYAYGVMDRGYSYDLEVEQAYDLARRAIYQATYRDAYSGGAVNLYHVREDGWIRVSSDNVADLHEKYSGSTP
Proteasome caspase-like activity (S26 protein from RPMI8226 cells), sequence (P28072 whole entry): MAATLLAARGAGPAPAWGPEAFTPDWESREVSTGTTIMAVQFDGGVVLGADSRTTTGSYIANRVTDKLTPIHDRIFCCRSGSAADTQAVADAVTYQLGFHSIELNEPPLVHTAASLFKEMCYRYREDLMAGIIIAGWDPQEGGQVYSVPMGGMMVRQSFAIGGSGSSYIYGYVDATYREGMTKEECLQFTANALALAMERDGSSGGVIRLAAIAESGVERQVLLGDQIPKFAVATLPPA

Row | Compound | IC50 [1] [nM] | IC50 [2] [nM]
1 | CC(C)C[C@H](NC(=O)C1(Cc2ccccc2)CC(CNC(=O)c2cccc3ncccc23)=NO1)B(O)O (stereo partly drawn) [Example 116, ((1R)-1-(5-benzyl-3-((quinolin-5-carboxamido)methyl)-4,5-dihydroisoxazol-5-carboxamido)-3-methylbutyl)boronic acid] | > 2500 | < 10
2 | CC(C)C[C@H](NC(=O)C1(Cc2ccccc2)CC(CNC(=O)c2cccc3c2ccn3C)=NO1)B(O)O (stereo partly drawn) [Example 138, ((1R)-1-(5-benzyl-3-((1-methyl-1H-indol-4-carboxamido)methyl)-4,5-dihydroisoxazol-5-carboxamido)-3-methylbutyl)boronic acid] | > 500 | < 10
3 | COC[C@H](NC(=O)c1nccc2ccccc12)C1=NOC(Cc2ccccc2)(C(=O)N[C@@H](CC(C)C)B(O)O)C1 (stereo partly drawn) [Example 153, ((1R)-1-(5-benzyl-3-((R)-1-(isoquinolin-1-carboxamido)-2-methoxyethyl)-4,5-dihydroisoxazol-5-carboxamido)-3-methylbutyl)boronic acid] | > 500 | < 10
4 | CC(C)C[C@H](NC(=O)C1(Cc2ccccc2)CC(CNC(=O)c2ccc(C(F)(F)F)nc2)=NO1)B(O)O (stereo partly drawn) [Example 179, ((1R)-1-(5-benzyl-3-((6-(trifluoromethyl)nicotinamido)methyl)-4,5-dihydroisoxazol-5-carboxamido)-3-methylbutyl)boronic acid] | > 500 | < 10
5 | CC(C)C[C@H](NC(=O)C1CC([C@H](CC(C)C)NC(=O)c2cc(Cl)ccc2Cl)=NO1)B(O)O (stereo partly drawn) [Example 74, ((1R)-1-(3-((S)-1-(2,5-dichlorobenzamido)-3-methylbutyl)-4,5-dihydroisoxazol-5-carboxamido)-3-methylbutyl)boronic acid] | > 500 | < 25
6 | CC(C)C[C@H](NC(=O)C1(C)CC(CNC(=O)c2cc(Cl)ccc2Cl)=NO1)B(O)O (stereo partly drawn) [Example 86, ((1R)-1-(3-((2,5-dichlorobenzamido)methyl)-5-methyl-4,5-dihydroisoxazol-5-carboxamido)-3-methylbutyl)boronic acid] | > 2500 | < 50
7 | CC(C)C[C@H](NC(=O)C1(Cc2ccccc2)CC(CNC(=O)c2cc(-c3ccccc3)nn2C(C)C)=NO1)B(O)O (stereo partly drawn) [Example 207, ((1R)-1-(5-benzyl-3-((1-isopropyl-3-phenyl-1H-pyrazol-5-carboxamido)methyl)-4,5-dihydroisoxazol-5-carboxamido)-3-methylbutyl)boronic acid] | > 250 | < 10
8 | CC(C)C[C@H](NC(=O)C1(Cc2ccccc2)CC(CNC(=O)c2ccnn2C(C)C)=NO1)B(O)O (stereo partly drawn) [Example 171, ((1R)-1-(5-benzyl-3-((1-isopropyl-1H-pyrazol-5-carboxamido)methyl)-4,5-dihydroisoxazol-5-carboxamido)-3-methylbutyl)boronic acid] | > 500 | < 10
9 | Cc1nc(C(=O)NCC2=NOC(Cc3ccccc3)(C(=O)N[C@@H](CC(C)C)B(O)O)C2)cs1 (stereo partly drawn) [Example 117, ((1R)-1-(5-benzyl-3-((2-methylthiazol-4-carboxamido)methyl)-4,5-dihydroisoxazol-5-carboxamido)-3-methylbutyl)boronic acid] | > 1000 | < 10
10 | O=C(NCC1=NOC(Cc2ccccc2)(C(=O)N[C@@H](Cc2ccccc2)B(O)O)C1)c1ccccc1 (stereo partly drawn) [Example 292, ((1R)-1-(3-(benzamidomethyl)-5-benzyl-4,5-dihydroisoxazol-5-carboxamido)-2-phenylethyl)boronic acid] | > 1000 | < 10
11 | CC(C)C[C@H](NC(=O)C1(Cc2ccccc2F)CC(CNC(=O)c2nccc3ccccc23)=NO1)B(O)O (stereo partly drawn) [Example 170, ((1R)-1-(5-(2-fluorobenzyl)-3-((isoquinolin-1-carboxamido)methyl)-4,5-dihydroisoxazol-5-carboxamido)-3-methylbutyl)boronic acid] | > 1000 | < 10
12 | CC(C)C[C@H](NC(=O)C1(Cc2ccccc2)CC(CNC(=O)c2ccnc3c2ccn3C(C)C)=NO1)B(O)O (stereo partly drawn) [Example 211, ((1R)-1-(5-benzyl-3-((1-isopropyl-1H-pyrrolo[2,3-b]pyridin-4-carboxamido)methyl)-4,5-dihydroisoxazol-5-carboxamido)-3-methylbutyl)boronic acid] | > 500 | < 10
13 | CC(C)C[C@H](NC(=O)C1CC([C@H](CC(C)C)NC(=O)c2nccc3ccccc23)=NO1)B(O)O (stereo partly drawn) [Example 73, ((1R)-1-(3-((S)-1-(isoquinolin-1-carboxamido)-3-methylbutyl)-4,5-dihydroisoxazol-5-carboxamido)-3-methylbutyl)boronic acid] | > 100 | < 25
14 | CC(C)C[C@H](NC(=O)C1CC(CNC(=O)c2nccc3ccccc23)=NO1)B(O)O (stereo partly drawn) [Example 61, ((1R)-1-(3-((isoquinolin-1-carboxamido)methyl)-4,5-dihydroisoxazol-5-carboxamido)-3-methylbutyl)boronic acid] | > 500 | < 10
15 | Cc1cc(C(=O)NCC2=NOC(Cc3ccccc3)(C(=O)N[C@@H](CC(C)C)B(O)O)C2)n(C(C)C)n1 (stereo partly drawn) [Example 190, ((1R)-1-(5-benzyl-3-((1-isopropyl-3-methyl-1H-pyrazol-5-carboxamido)methyl)-4,5-dihydroisoxazol-5-carboxamido)-3-methylbutyl)boronic acid] | > 2500 | < 10
16 | Cc1nc(C)c(COCC2=NOC(Cc3ccccc3)(C(=O)N[C@@H](CC(C)C)B(O)O)C2)s1 (stereo partly drawn) [Example 51, ((1R)-1-(5-benzyl-3-(((2,4-dimethylthiazol-5-yl)methoxy)methyl)-4,5-dihydroisoxazol-5-carboxamido)-3-methylbutyl)boronic acid] | > 500 | < 10
17 | CC(C)C[C@H](NC(=O)C1(Cc2ccccc2)CC(CNC(=O)c2c[nH]c3ccccc23)=NO1)B(O)O (stereo partly drawn) [Example 124, ((1R)-1-(3-((1H-indol-3-carboxamido)methyl)-5-benzyl-4,5-dihydroisoxazol-5-carboxamido)-3-methylbutyl)boronic acid] | > 500 | < 10
18 | CC(C)C[C@H](NC(=O)C1(Cc2ccccc2)CC(CNC(=O)c2cccc3c2cnn3C(C)C)=NO1)B(O)O (stereo partly drawn) [Example 205, ((1R)-1-(5-benzyl-3-((1-isopropyl-1H-indazol-4-carboxamido)methyl)-4,5-dihydroisoxazol-5-carboxamido)-3-methylbutyl)boronic acid] | > 500 | < 10
19 | CC(C)C[C@H](NC(=O)C1(Cc2ccccc2)CC(CNC(=O)c2cccc3c2CCCC3)=NO1)B(O)O (stereo partly drawn) [Example 115, ((1R)-1-(5-benzyl-3-((5,6,7,8-tetrahydronaphthalen-1-carboxamido)methyl)-4,5-dihydroisoxazol-5-carboxamido)-3-methylbutyl)boronic acid] | > 1000 | < 10
20 | CC(C)C[C@H](NC(=O)C1(Cc2ccccc2)CC([C@H](C)NC(=O)c2nccc3ccccc23)=NO1)B(O)O (stereo partly drawn) [Example 145, ((1R)-1-(5-benzyl-3-((S)-1-(isoquinolin-1-carboxamido)ethyl)-4,5-dihydroisoxazol-5-carboxamido)-3-methylbutyl)boronic acid] | > 2500 | < 10
21 | Cc1cccc(C(=O)NCC2=NOC(Cc3ccccc3)(C(=O)N[C@@H](CC(C)C)B(O)O)C2)n1 (stereo partly drawn) [Example 160, ((1R)-1-(5-benzyl-3-((6-methylpicolinamido)methyl)-4,5-dihydroisoxazol-5-carboxamido)-3-methylbutyl)boronic acid] | > 500 | < 10
22 | Cc1cccc(CC2(C(=O)N[C@@H](CC(C)C)B(O)O)CC(CNC(=O)c3nccc4ccccc34)=NO2)c1 (stereo partly drawn) [Example 125, ((1R)-1-(3-((isoquinolin-1-carboxamido)methyl)-5-(3-methylbenzyl)-4,5-dihydroisoxazol-5-carboxamido)-3-methylbutyl)boronic acid] | > 500 | < 10
23 | CC(C)C[C@H](NC(=O)C1(Cc2ccccc2)CC(CNC(=O)c2nccc3ccccc23)=NO1)B(O)O (stereo partly drawn) [Example 84, ((1R)-1-(5-benzyl-3-((isoquinolin-1-carboxamido)methyl)-4,5-dihydroisoxazol-5-carboxamido)-3-methylbutyl)boronic acid] | > 1000 | < 10
24 | O=C(N[C@@H](Cc1ccccc1)B(O)O)C1(Cc2ccccc2)CC(COCc2ccccc2)=NO1 (stereo partly drawn) [Example 257, ((1R)-1-(5-benzyl-3-((benzyloxy)methyl)-4,5-dihydroisoxazol-5-carboxamido)-2-phenylethyl)boronic acid] | > 2500 | < 10
